Reference: publication PMC6212948, “Fucoxanthin-Containing Cream Prevents Epidermal Hyperplasia and UVB-Induced Skin Erythema in Mice” (Marine Drugs, 2018)

Tests used:
[1] = tested on: TPA-induced epidermal hyperplasia in mice dorsal skin; experiment: TPA-induced epidermal hyperplasia model; assay type: in vivo, Swiss CD-1 mice; conditions: topical cream 100 mg per site containing 200 µg drug, vs TPA-cream group
Procedure: Female Swiss CD-1 mice (n = 10 per group) were used to study the effect of FX on TPA-induced hyperplasia in mice dorsal skin. Briefly, the dorsal hair of animals was removed with an electric clipper and treated with depilatory cream (Deliplus, Barcelona, Spain). After 24 h, the animals were assigned to the different groups: Sham (vehicle: 100 mg of cream with 0.2% of ethanol); TPA control group; TPA-Cream (vehicle: 100 mg of cream with 0.2% of ethanol); Dex-cream (100 mg of cream per site, containing 200 µg of Dex dissolved in ethanol at 10 µg/mL); FX-cream formulation (100 mg of cream per site, containing 200 µg of FX dissolved in ethanol at 10 µg/mL). The creams were applied to the dorsal skin in an area of 1 cm^2 using a syringe, during 2 days before the hyperplasia induction. Mice were anesthetized with ketamine (100 mg/kg of animal) and diazepam (5 mg/kg of animal) during treatments and TPA challenge. On day 4, TPA (2 nmol of TPA, dissolved in 20 µL of ethanol) was topically applied to the same areas on all groups except in sham group. After 1 h, FX-cream, the Dex-cream or vehicle were administered following the mentioned protocol. This procedure was replicated during two consecutive days. After 24 h of the last TPA dorsal application (day 7), mice were sacrificed by cervical dislocation and punch biopsies from the treated dorsal skin were weighed to evaluate edema, before further processing for histology and biochemical parameters.
The measurement of MPO activity was used as a marker of neutrophil infiltration. The tissue was thawed, weighed and homogenized in 10 volumes of 50 mM-PBS (pH 7.4). Then, the homogenate was centrifuged at 20,000× g for 20 min at 4 °C and the pellet was again homogenized in 10 volumes of 50 mM-PBS (pH 6) containing hexadecyl trimethylammonium bromide (0.5%) and 10 mM-EDTA. This homogenate was subjected to one cycle of freezing/thawing and sonicated. […] The changes in absorbance were monitorized at 450 nm with a microplate reader (Labysystem Multiskan EX, Thermo Scientific, New York, NY, USA). MPO activity unit was defined as the amount of enzyme present that produced a change in absorbance of 1.0 unit/min at 37 °C in the final reaction volume containing acetate. Results are expressed as units/mg tissue.
The samples were fixed in paraformaldehyde, dehydrated by increasing concentrations of ethanol and embedded in paraffin. […] Epidermal thickness was measured by using Scientific Imaging Systems (Biophotonics ImageJ Analysis Software; National Institutes of Health, Rockville, MD, USA).
COX-2 expression was measured by immunohistochemical analysis by using a streptavidin-biotin-peroxidase method. […]

THP-1 macrophages = experiment: SRB cell viability assay, THP-1 macrophages; assay type: cell-based, human; conditions: for % Viability THP-1 macrophages (24 h): mean ± ES, n = 3
Procedure: (§1) The THP-1 human monocytic leukemia cell line and HaCaT human keratinocytes were obtained from the American Type Culture Collection (ATCC, Manassas, VA, USA). THP-1 cells were cultured in RPMI 1640 medium (GIBCO, Grand Island, New York, NY, USA) containing 10% heat-inactivated fetal bovine serum (FBS), 100 U/mL penicillin and 100 μg/mL streptomycin. HaCaT human keratinocytes were maintained in high glucose Dulbecco’s modified Eagle’s medium (DMEM, GIBCO, Grand Island, New York, NY, USA). Both cell lines were grown in a humidified atmosphere containing 5% CO2 at 37 °C [20].
(§2) SRB assay was used for determining the viability of THP-1 macrophages and HaCaT cells upon exposure to FX (Sigma-Aldrich, St. Louis, MO, USA). Firstly, for differentiation into macrophages, THP-1 cells were seeded into 96-well plates at 10^4 cells/well in presence of phorbol 12-myristate 13-acetate (PMA, Sigma-Aldrich, St. Louis, MO, USA) for a final concentration of 0.2 µM for 72 h in 96-well plates and HaCaT cells were seeded into 96-well plates in the growth medium at 10^4 cells/well for 24 h to ensure the adherence. Both cellular types were incubated in a humidified atmosphere of 5% CO2 at 37 °C. After that, cells were treated with FX at final concentrations range of 10–100 µM in DMSO 0.1% (v/v) and the cytotoxicity was measured after 24, 48 and 72 h of incubation. The absorbance was determined at 492 nm in a microplate spectrophotometer (Sinergy HT, Biotek®, Bad Friedrichshall, Germany).

[2] = tested on: HaCaT human keratinocytes; experiment: SRB cell viability assay, HaCaT keratinocytes; assay type: cell-based; conditions: for % Viability HaCaT keratinocytes (24 h): mean ± ES, n = 3
Procedure: as §1, §2

[3] = tested on: TNF-α production in LPS-stimulated THP-1 macrophages; experiment: TNF-α production in LPS-stimulated THP-1 macrophages (ELISA); assay type: cell-based, human
Procedure: THP-1 monocytes were differentiated into macrophages in 96-well plates (10^4 cells/well). Then, cells were incubated for 1 h with FX (10, 30 and 50 µM). The positive reference compound used was Dex (1 µM) (Sigma-Aldrich, St. Louis, MO, USA). Inflammatory response was induced by addition of LPS (1 μg/mL) except for control group. After 24 h, commercial enzyme-linked immunosorbent assay (ELISA) kit (Diaclone GEN-PROBE, Besançon, France) was used to quantify TNF-α according to the manufacturer’s protocol.

[4] = tested on: IL-6 and IL-8 production in TNF-α-stimulated HaCaT keratinocytes; experiment: IL-6 and IL-8 production in TNF-α-stimulated HaCaT keratinocytes (ELISA); assay type: cell-based, human; conditions: all concentrations tested (10, 30 and 50 μM), 1 h pre-treatment, TNF-α 10 ng/mL 24 h, vs TNF-α group
Procedure: HaCaT cells were seeded in 6-well plates (5 × 10^5 cells/well). After 24 h, cells were washed twice (PBS, 4 °C) and medium containing FX (10, 30 and 50 μM) or Dex (1 μM) was added for 1 h, and then cells were stimulated with TNF-α (10 ng/mL) except for control group. After 24 h, supernatant fluids were collected and stored −80 °C until measurements. Commercial enzyme-linked immunosorbent assay (ELISA) kit (Diaclone GEN-PROBE, Besançon, France) was used to quantify IL-6 and IL-8 according to the manufacturer’s protocol.

[5] = tested on: UVB-irradiated HaCaT cells; experiment: LDH assay in UVB-irradiated HaCaT keratinocytes; assay type: cell-based, human; conditions: 10, 30 and 50 μM, 1 h prior to UVB 50 mJ/cm^2, 24 h, dose-dependent
Procedure: (§3) Human keratinocytes were exposed to UVB radiation as previously described. Briefly, the cells were grown to confluence and were treated with different concentrations of FX (10, 30 and 50 µM) for 1 h. Then, the medium was removed and a thin layer of PBS was added. Cells were exposed to a single dose of UVB radiation (50 mJ/cm^2) for 1 min. The UVB source was a CL-1000M UV Crosslinker (UVP, Upland, CA, USA), which was used to deliver an energy spectrum of UVB light (280–315 nm; peak intensity, 302 nm). After UVB irradiation, the cells were supplied with fresh complete medium and incubated for 24 h.
The measure of cytosolic enzyme LDH is one of the commonly used methods for assessing loss of cellular membrane integrity. The assay is based on the conversion of […] in the presence of LDH with the consequence oxidation of NADH as previously described. HaCaT cells were seeded in 6-well plates (5 × 10^5 cells/well). After 24 h, cells were treated with FX (10, 30 and 50 μM) for 1 h and then, were irradiated with UVB. After 24 h, cell-free supernatants and cell lysates were mixed in a 96-well plate and the absorbance was read by using a microplate reader system (Sinergy HT, Biotek®, Bad Friedrichshall, Germany). LDH leakage was estimated calculating the LDH activity in the cell-free medium and LDH activity in lysates ratio. […]

[6] = tested on: UVB-irradiated HaCaT cells; experiment: Intracellular ROS (DCF-DA assay) in UVB-irradiated HaCaT keratinocytes; assay type: cell-based, human; conditions: 1 h prior to UVB 50 mJ/cm^2, 30 min after irradiation, vs UVB
Procedure: as §3
For quantification of ROS in HaCaT cells, the DCF-DA assay was employed. HaCaT cells were seeded in nin96-well plates (10^4 cells/well). Non-irradiated cells were used as negative control. After 24 h, cells were treated with FX (10, 30 and 50 µM) for 1 h and then, were exposed to UVB. Post irradiation, cells were incubated with 2′,7′-dichlorodihydrofluorescein diacetate (DCFH-DA) solution (5 mg/mL) in PBS for 30 min [63]. The fluorescence of the 2′,7′-dichlorofluorescein (DCF) product was determined using a fluorescence plate reader (Sinergy HT, Biotek®, Bad Friedrichshall, Germany) at 485 nm for excitation and 535 nm for emission.

[7] = tested on: IL-6 production in UVB-exposed HaCaT keratinocytes; experiment: IL-6 production in UVB-exposed HaCaT keratinocytes (ELISA); assay type: cell-based, human; conditions: 1 h prior to UVB, 24 h after exposure, vs UVB
Procedure: as §3
HaCaT cells (5 × 10^5 cells/well) were seeded in 6-well plates. After 24 h, cells were treated with FX (10, […] and 50 μM) for 1 h and then, were exposed to UVB. After 24 h, supernatant fluids were collected and ELISA kit (Diaclone GEN-PROBE, Besançon, France) was employed to quantify IL-6 according to the manufacturer’s protocol. The absorbance at 450 nm was read by a microplate reader (Labysystem Multiskan EX, Thermo Scientific, New York, NY, USA).

[8] = cited from earlier work
[9] = 24 h after treatment, SRB assay

Structure (SMILES): C[C@@H]1C[C@H]2[C@@H]3CCC4=CC(=O)C=C[C@]4(C)[C@@]3(F)[C@@H](O)C[C@]2(C)[C@@]1(O)C(=O)CO [Dex, dexamethasone]
- epidermal hyperplasia (epidermal thickness, H&E) [1]: significant improvement
- myeloperoxidase (MPO) activity in skin homogenates [1]: markedly diminished
- epidermal COX-2-positive stained cells (immunohistochemistry) ([1]; p < 0.001): confirmed the anti-inflammatory effect
- skin edema (weight of 1 cm^2 punch biopsy) ([1]; p < 0.001): significantly reduced

Structure (SMILES): CC(=O)O[C@H]1CC(C)(C)C(=C=C/C(C)=C/C=C/C(C)=C/C=C/C=C(C)/C=C/C=C(\C)C(=O)C[C@@]23O[C@]2(C)C[C@@H](O)CC3(C)C)[C@](C)(O)C1 [FX, fucoxanthin]
- % Viability THP-1 macrophages (24 h) (THP-1 macrophages; 10 μM): 97.5 ± 2.0%
- % Viability THP-1 macrophages (24 h) (THP-1 macrophages; 30 μM): 96.5 ± 1.2%
- % Viability THP-1 macrophages (24 h) (THP-1 macrophages; 50 μM): 103.7 ± 1.1%
- % Viability THP-1 macrophages (24 h) (THP-1 macrophages; 100 μM): 90.7 ± 0.5%
- IC50 (THP-1 macrophages; [9]): > 100 µM
- % Viability HaCaT keratinocytes (24 h) ([2]; 10 μM): 111.2 ± 2.1%
- % Viability HaCaT keratinocytes (24 h) ([2]; 30 μM): 105.2 ± 4.0%
- % Viability HaCaT keratinocytes (24 h) ([2]; 50 μM): 103.9 ± 3.2%
- % Viability HaCaT keratinocytes (24 h) ([2]; 100 μM): 101.5 ± 2.2%
- IC50 [2, 9]: > 100 µM
- TNF-α production ([3]; 50 µM pre-treatment, LPS-stimulated, p < 0.001, similar values to Dex 1 μM): significant reduction
- TNF-α production ([3]; all concentrations tested (10, 30 and 50 μM), 1 h pre-treatment, LPS 1 μg/mL 24 h, vs LPS group): significantly reduced
- IL-6 production [4]: significantly reduced
- IL-8 production [4]: significantly reduced
- UVB-induced mortality (LDH activity) [5]: significantly decreased
- reduction of ROS levels ([6]; 10 μM): 23%
- reduction of ROS levels ([6]; 30 μM): 31%
- reduction of ROS levels ([6]; 50 μM): 32%
- inhibition of IL-6 levels ([7]; 10 μM): 23%
- inhibition of IL-6 levels ([7]; 30 μM): 31%
- inhibition of IL-6 levels ([7]; 50 μM): 59%
- partition coefficient (log P) [8]: 6.83–7.54
